Where “and” joins values, the source holds several entries; their conditions need not be identical. Equal entries are not always repeated.
Tests used:
[1] = Single i.v. bolus pharmacokinetic study in mice: plasma and brain levels by LC-MS/MS; format: in vivo, female C3H/HeN mice; conditions: mouse; for Plasma product (Ic) concentration: individual animals IV1-IV4
Protocol: Analytical Results Obtained from a Single i.v. Bolus Pharmacokinetic Study in Mice.
Groups of female C3H/HeN mice received the product by an intravenous route as a bolus at a dose level of 40 mg.kg^−1, equivalent to 120 mg.m^−2. Blood and brain samples were obtained from all dosed animals sacrificed at intervals up to 72 hours post dose. Brain and corresponding plasma samples were assayed for product (Ia) content by an LC-MS/MS assay.
2.25 mg.ml^−1 solution containing 5% Polysorbate 80, 5% ethanol, and 90% of an aqueous 5% glucose solution.
Fifty-six female C3H/HeN mice, each weighing ca 20 g, were each administered formulated product II by i.v. bolus via the tail vein at an injection volume of 0.4 ml to give a total dose of 40 mg.kg^−1.
Blood by cardiac puncture, and liver and brain by dissection after CO2 sacrifice.
Whole blood was collected in heparinised tubes, and corresponding plasma samples were obtained by centrifugation, and frozen immediately at −20° C. Tissues were blotted, weighed, and frozen immediately at −20° C. All samples were dispatched frozen for analysis. Upon receipt, samples were stored frozen at approximately −18° C. pending analysis.
LC-MS/MS (Sciex API III plus) in turbo-ionspray mode.
75×4.6 mm Supelcosil ABZ plus (3 μm).
Acetonitrile/methanol/ammonium acetate (10 mM); 40/25/35 v/v/v.
Plasma: Added 100 μl of acetonitrile to sample (50 μl). Vortexed, centrifuged, removed supernatant, added 100 μl of mobile phase and injected 150 μl .
Brain: Added 100 μl of acetonitrile to homogenised sample (100 mg of a 1:1 w/w brain with water homogenate) and vortexed. Added 1 ml of diethyl ether, vortexed, centrifuged, removed organic layer, and dried under N2. Reconstituted in 200 μl of mobile phase and injected 150 μl.
Plasma: Nine at concentrations of 5, 10, 20, 50, 100, 200, 300, 400 & 500 ng.ml^−1 (product Ia). Prepared by adding suitable aliquots of the product (concentrations =0.1, 1 or 10 μg.ml^−1) in ethanol to 0.5 ml aliquots of mouse plasma. Each sample was vortexed following drug addition; a 50 μl aliquot was then removed for assay.
Brain: Eleven at concentrations of 10, 20, 30, 100, 200, 300, 400, 500, 1000, 2500 & 5000 ng.g^−1 in homogenised mouse brain (1:1 w/w brain with water). Prepared by adding suitable aliquots of the product (concentrations=1, 10 or 100 μg.ml-^−1) in ethanol to 0.5, 1, 3 or 4 g of homogenised mouse brain. Each sample was vortexed following drug addition and a 100 mg aliquot was then removed for assay.
A biexponential equation was fitted to the profiles using an interactive linear least-square algorithm as part of the SIPHAR package.

[2] = test system: intracranially implanted human glioblastoma U251; experiment: Antitumor activity against intracranially implanted U251 glioblastoma in NCr-nu mice (RP-36); format: in vivo; conditions: for DAYS OF DEATH: individual animals
Protocol: The treatment schedule of the intracranially implanted U251 glioblastoma cells was iv, once daily, every sixth day for three treatments (q6d×3), beginning on day four post-implant. […] For the intracranially implanted studies, the compounds were evaluated based on their ability to increase the life span of the animals. The positive control used for both of these tumor models was nitrosourea.
The oversight committee was the Southern Research Institutional Animal Care and Use Committee; the protocol used was IACUC No. 96-8-50.
Product (Ia) was prepared in 5% ethanol, 5% tween 80, 90% D5W
Product (Ia) was administered in 0.4 ml/mouse based on a total body weight average.
Nitrosourea was administered 0.1 ml/10 g of body weight.
Any intracranially implanted animal that appeared to be moribund was euthanized for humane purposes. Since efficacy studies fall within this category of basic research, experiment termination was based on resultants that were determined to be optimal.
Six to eight week old athymic NCr-nu female mice were used for the intracranially implanted U251 trials.
The cells were injected into the cerebrum to the right of the midline with a 25 gauge, ⅜ inch, stainless steel needle. Cultured cells were used for the U251 experiment (RP-36). The treatment schedule was q6d×3, iv, beginning on day four, post-implant. […] The treatment schedule was q4d×3, iv, beginning on day two, post-implant. Nitrosourea was given in each experiment for comparative purposes because of its known activity against CNS tumors.

[3] = plasma, i.v. 40 mg.kg^−1, calculated from values ≧b.l.q. of 20 ng.ml^−1
[4] = plasma, i.v. 40 mg.kg^−1, calculated from values ≧l.o.d. of 4 ng.ml^−1
[5] = 13.4 mg/kg/dose IV Q6D×3(4), listed as Product I(a)
[6] = 13.4 mg/kg/dose IV Q6D×3(4), listed as product (Ia)
[7] = 20.0 mg/kg/dose IV Q6D×3(4), listed as Product I(a)
[8] = 20.0 mg/kg/dose IV Q6D×3(4), listed as product (Ia)
[9] = 30.0 mg/kg/dose IV Q6D×3(4), listed as Product I(a)
[10] = 30.0 mg/kg/dose IV Q6D×3(4), listed as product (Ia)

**Q.** What does the source list for `CO[C@H]1C(=O)[C@]2(C)[C@@H](OC)C[C@H]3OC[C@@]3(OC(C)=O)[C@H]2[C@H](OC(=O)c2ccccc2)[C@]2(O)C[C@H](OC(=O)[C@H](O)[C@@H](NC(=O)OC(C)(C)C)c3ccccc3)C(C)=C1C2(C)C` [Product (Ia), 4α-acetoxy-2α-benzoyloxy-5β, 20-epoxy-1β-hydroxy-7β, 10β-dimethoxy-9-oxo-11-taxen-13α-yl (2R,3S)-3 tert-butoxycarbonylamino-2-hydroxy-3-phenylpropionate]?
**A.** AUC0-72h ([1]; brain, i.v. 40 mg.kg^−1): *the corresponding AUC0-72h = 549.7 h.μg.g^−1; Terminal T½ ([1]; brain, i.v. 40 mg.kg^−1): 31.4 h; AUC0-∞ ([1]; brain, i.v. 40 mg.kg^−1, mean data, extrapolated from 72 h, listed as product (Ic)): 787.g* h.μg.g^−1; Mean total plasma clearance ([1]; i.v. 40 mg.kg^−1): 1.3 I.h^−1.kg^−1; levels in the brain relative to those in the plasma (on the basis of AUC0∞ values) ([1]; i.v. 40 mg.kg^−1): about twenty; time post dose up to which plasma levels persisted above the limit of accurate quantification (20 ng.ml^−1) ([1]; i.v. 40 mg.kg^−1): up to 14 h; time post dose up to which plasma levels were consistently above the limit of detection (4 ng.ml^−1) ([1]; i.v. 40 mg.kg^−1): up to 24 h; Plasma product (Ic) concentration ([1]; i.v. 40 mg.kg^−1, 2 min after dose): 52987 ng/mL and 45942 ng/mL and 49607 ng/mL and 38994 ng/mL; Plasma product (Ic) concentration, MEAN ([1]; i.v. 40 mg.kg^−1, 2 min after dose, mean of IV1-IV4): 46882 ng/mL; Plasma product (Ic) concentration ([1]; i.v. 40 mg.kg^−1, 5 min after dose): 36734 ng/mL and 33538 ng/mL and 32077 ng/mL and 34903 ng/mL; Plasma product (Ic) concentration, MEAN ([1]; i.v. 40 mg.kg^−1, 5 min after dose, mean of IV1-IV4): 34313 ng/mL; Plasma product (Ic) concentration ([1]; i.v. 40 mg.kg^−1, 15 min after dose): 20493 ng/mL and 20897 ng/mL and 21051 ng/mL and 19459 ng/mL; Plasma product (Ic) concentration, MEAN ([1]; i.v. 40 mg.kg^−1, 15 min after dose, mean of IV1-IV4): 20475 ng/mL; Plasma product (Ic) concentration ([1]; i.v. 40 mg.kg^−1, 0.5 h after dose): 10765 ng/mL and 10344 ng/mL and 9170 ng/mL and 11232 ng/mL; Plasma product (Ic) concentration, MEAN ([1]; i.v. 40 mg.kg^−1, 0.5 h after dose, mean of IV1-IV4): 10378 ng/mL; Plasma product (Ic) concentration ([1]; i.v. 40 mg.kg^−1, 0.75 h after dose): 7133 ng/mL and 10948 ng/mL and 8121 ng/mL and 10148 ng/mL; Plasma product (Ic) concentration, MEAN ([1]; i.v. 40 mg.kg^−1, 0.75 h after dose, mean of IV1-IV4): 9087 ng/mL; Plasma product (Ic) concentration ([1]; i.v. 40 mg.kg^−1, 1 h after dose): 6017 ng/mL and 7423 ng/mL and 6693 ng/mL and 6079 ng/mL; Plasma product (Ic) concentration, MEAN ([1]; i.v. 40 mg.kg^−1, 1 h after dose, mean of IV1-IV4): 6553 ng/mL; Plasma product (Ic) concentration ([1]; i.v. 40 mg.kg^−1, 4 h after dose): 1072 ng/mL and 1110 ng/mL and 835 ng/mL and 830 ng/mL; Plasma product (Ic) concentration, MEAN ([1]; i.v. 40 mg.kg^−1, 4 h after dose, mean of IV1-IV4): 962 ng/mL; Plasma product (Ic) concentration ([1]; i.v. 40 mg.kg^−1, 6 h after dose): 449 ng/mL and 316 ng/mL and 346 ng/mL and 336 ng/mL; Plasma product (Ic) concentration, MEAN ([1]; i.v. 40 mg.kg^−1, 6 h after dose, mean of IV1-IV4): 362 ng/mL; Plasma product (Ic) concentration ([1]; i.v. 40 mg.kg^−1, 8 h after dose): 204 ng/mL and 199 ng/mL and 195 ng/mL and 154 ng/mL; Plasma product (Ic) concentration, MEAN ([1]; i.v. 40 mg.kg^−1, 8 h after dose, mean of IV1-IV4): 188 ng/mL; Plasma product (Ic) concentration ([1]; i.v. 40 mg.kg^−1, 14 h after dose): 65 ng/mL and 56 ng/mL and 50 ng/mL and 52 ng/mL; Plasma product (Ic) concentration, MEAN ([1]; i.v. 40 mg.kg^−1, 14 h after dose, mean of IV1-IV4): 56 ng/mL; Plasma product (Ic) concentration ([1]; i.v. 40 mg.kg^−1, 24 h after dose, blq = below limit of accurate quantification (20 ng.ml^−1)): ~18(blq) ng.ml^−1 and ~15(blq) ng.ml^−1 (2×) and ~16(blq) ng.ml^−1; Plasma product (Ic) concentration, MEAN ([1]; i.v. 40 mg.kg^−1, 24 h after dose, mean of IV1-IV4 (all blq)): 16 ng/mL; Plasma product (Ic) concentration ([1]; i.v. 40 mg.kg^−1, 48 h after dose, n.d. = not detected (≦l.o.d. of 4 ng.ml^−1)): ~4(blq) ng.ml^−1; Plasma product (Ic) concentration, MEAN ([1]; i.v. 40 mg.kg^−1, 48 h after dose, mean of IV1-IV4 (blq / n.d.)): 2 ng/mL; brain level, peak ([1]; i.v. 40 mg.kg^−1, at 14 h): 9.1 µg/g; brain level ([1]; i.v. 40 mg.kg^−1, last sampling time, 72 h): 5.3 µg/g; plasma level, peak (mean) ([1]; i.v. 40 mg.kg^−1, peak at 2 minutes): 46900 ng/mL; Plasma product (Ic) concentration ([1]; i.v. 40 mg.kg^−1, time after dose printed as — (between 1 h and 4 h)): 4633 ng/mL and 4337 ng/mL and 4600 ng/mL and 3564 ng/mL; Plasma product (Ic) concentration, MEAN ([1]; i.v. 40 mg.kg^−1, time after dose printed as — (between 1 h and 4 h), mean of IV1-IV4): 4283 ng/mL; plasma level ([1]; i.v. 40 mg.kg^−1, within 4 h): less than 1 μg.ml^−1; penetration of the blood brain barrier ([1]; post-i.v. administration): appeared to readily penetrate the blood brain barrier; ClT (total plasma clearance) [1, 3]: 1.3 1.h^−1.kg^−1; Initial T½ [1, 3]: 0.2 h; Terminal T½ [1, 3]: 2.0 h; Vdss [1, 3]: 2.4 1.kg^−1; ClT (total plasma clearance) [1, 4]: 1.3 1.h^−1.kg^−1; Initial T½ [1, 4]: 0.7 h; Terminal T½ [1, 4]: 6.2 h; Vdss [1, 4]: 1.9 1.kg^−1; MEDIAN DAY OF DEATH ([2]; 13.4 mg/kg/dose IV Q6D×3(4)): 83.0 days; DAYS OF DEATH ([2]; 13.4 mg/kg/dose IV Q6D×3(4)): 69 day (2×) and 83 day (4×) and 122 day; 122-DAY SURV./TOTAL [2, 5]: 3/10; % ILS [2, 5]: +144%; 122-DAY SURV./TOTAL [2, 6]: three of ten; % ILS [2, 6]: 144%; MEDIAN DAY OF DEATH ([2]; 20.0 mg/kg/dose IV Q6D×3(4)): 103.0 days; DAYS OF DEATH ([2]; 20.0 mg/kg/dose IV Q6D×3(4)): 58 day and 98 day and 100 day and 106 day (2×) and 122 day; 122-DAY SURV./TOTAL [2, 7]: 4/10; % ILS [2, 7]: +202%; 122-DAY SURV./TOTAL [2, 8]: four of ten; % ILS [2, 8]: 202%; MEDIAN DAY OF DEATH ([2]; 30.0 mg/kg/dose IV Q6D×3(4)): 94.0 days; DAYS OF DEATH ([2]; 30.0 mg/kg/dose IV Q6D×3(4)): 21 days and 34 days and 94 days and 98 days and 103 days; 122-DAY SURV./TOTAL [2, 9]: 5/10; % ILS [2, 9]: +176%; 122-DAY SURV./TOTAL [2, 10]: five of ten; % ILS [2, 10]: 176%; activity against intracranially implanted U251 glioblastoma ([2]; iv q6d×3): quite active; MTD ([2]; iv q6d×3, U251 experiment RP-36): 20 mg/kg/dose

Source: patent publication US6346543B1, “Use of a taxoid to treat abnormal cell proliferation in the brain” (priority 1998, dated 2002)
